Like-named read-outs stand apart in the source and are kept apart here.

What all share (parameters): dose or concentration left out as unconfirmed
One experiment addresses T1, CCR6 (Homo sapiens, UniProt P51684).
T1 construct: expressed in transfected cells
T1 sequence (P51684 1-374): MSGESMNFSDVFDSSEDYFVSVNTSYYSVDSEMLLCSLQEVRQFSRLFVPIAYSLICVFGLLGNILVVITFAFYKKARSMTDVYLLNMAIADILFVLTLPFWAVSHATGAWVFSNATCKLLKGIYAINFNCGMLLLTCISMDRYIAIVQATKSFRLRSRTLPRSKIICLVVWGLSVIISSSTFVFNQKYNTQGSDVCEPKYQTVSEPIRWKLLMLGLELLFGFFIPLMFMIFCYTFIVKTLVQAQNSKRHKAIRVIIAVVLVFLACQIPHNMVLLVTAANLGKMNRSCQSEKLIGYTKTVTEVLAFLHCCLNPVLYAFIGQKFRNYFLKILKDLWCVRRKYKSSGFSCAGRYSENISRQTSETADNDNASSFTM
Kind of experiment: Figure S2a opioid peptide screen on chemokine receptors. Format: cell-based.

For the next experiment, the target named is ACKR3 (Homo sapiens, UniProt P25106). Kind of experiment: cell-based. The conditions noted are these: read-out: ACKR3 activity, ctrl+ = 100, Figure S2a.
Sequence of ACKR3 (P25106 whole entry): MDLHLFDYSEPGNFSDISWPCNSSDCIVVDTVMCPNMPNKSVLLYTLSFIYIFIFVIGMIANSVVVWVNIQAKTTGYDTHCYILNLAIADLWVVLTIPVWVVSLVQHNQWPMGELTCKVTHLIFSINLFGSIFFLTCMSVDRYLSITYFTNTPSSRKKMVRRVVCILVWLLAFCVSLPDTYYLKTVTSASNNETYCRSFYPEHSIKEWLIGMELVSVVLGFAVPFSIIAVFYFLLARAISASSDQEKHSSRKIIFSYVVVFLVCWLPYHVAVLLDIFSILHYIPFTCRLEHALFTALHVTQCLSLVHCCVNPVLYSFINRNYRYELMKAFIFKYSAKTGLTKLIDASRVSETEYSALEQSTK
Another experiment deals with T2, CXCR1 (Homo sapiens, UniProt P25024).
T2 construct: expressed in transfected cells
T2 sequence (P25024 1-350): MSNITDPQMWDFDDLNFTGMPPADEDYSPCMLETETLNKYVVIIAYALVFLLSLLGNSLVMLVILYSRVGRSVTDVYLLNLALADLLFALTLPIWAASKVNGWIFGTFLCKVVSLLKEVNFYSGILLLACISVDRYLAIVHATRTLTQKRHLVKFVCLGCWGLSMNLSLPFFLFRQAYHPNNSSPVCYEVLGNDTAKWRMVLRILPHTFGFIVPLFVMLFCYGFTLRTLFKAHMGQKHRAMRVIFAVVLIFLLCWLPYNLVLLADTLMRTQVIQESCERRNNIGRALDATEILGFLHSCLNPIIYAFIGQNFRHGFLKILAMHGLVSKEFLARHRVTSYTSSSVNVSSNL
Description: Figure S2a opioid peptide screen on chemokine receptors. It counts as cell-based.

The target in the next experiment is T3, CCR9 (Homo sapiens, UniProt P51686).
T3 construct: expressed in transfected cells
T3 sequence (P51686 1-369): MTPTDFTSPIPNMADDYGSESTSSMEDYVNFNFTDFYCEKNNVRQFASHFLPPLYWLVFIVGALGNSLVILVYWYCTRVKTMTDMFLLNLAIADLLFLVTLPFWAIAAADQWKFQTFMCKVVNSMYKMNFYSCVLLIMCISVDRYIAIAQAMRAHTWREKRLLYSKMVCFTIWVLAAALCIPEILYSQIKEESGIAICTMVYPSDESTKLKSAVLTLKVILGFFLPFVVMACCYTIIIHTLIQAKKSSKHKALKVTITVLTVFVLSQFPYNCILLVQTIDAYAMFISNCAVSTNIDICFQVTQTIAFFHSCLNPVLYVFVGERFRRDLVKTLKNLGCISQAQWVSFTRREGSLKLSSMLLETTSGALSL
Described as above. Format: cell-based.

The next experiment addresses CCR8 (Homo sapiens, UniProt P51685). The experiment is described as above. The conditions noted are these: read-out: CCR8 activity, ctrl+ = 100, Figure S2a.
The target in a further experiment is T4, CCR1 (Homo sapiens, UniProt P32246).
T4 construct: expressed in transfected cells
T4 sequence (P32246 1-355): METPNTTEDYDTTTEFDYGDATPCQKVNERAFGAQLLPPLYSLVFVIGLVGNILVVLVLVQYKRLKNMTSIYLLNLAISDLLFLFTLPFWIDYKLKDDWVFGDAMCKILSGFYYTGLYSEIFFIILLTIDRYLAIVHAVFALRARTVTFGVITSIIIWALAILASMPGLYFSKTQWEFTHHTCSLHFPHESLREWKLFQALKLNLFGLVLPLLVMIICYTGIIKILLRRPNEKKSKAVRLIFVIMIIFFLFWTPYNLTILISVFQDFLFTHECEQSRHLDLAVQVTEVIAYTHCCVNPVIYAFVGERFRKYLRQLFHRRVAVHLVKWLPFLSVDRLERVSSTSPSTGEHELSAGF
The experiment is described as above. Format: cell-based.

Setting [1] is: replicate 1, read-out: CCR6 activity, ctrl+ = 100.
Where [2] appears, read: replicate 2, read-out: CCR6 activity, ctrl+ = 100.
[3] abbreviates: replicate 1, read-out: CXCR1 activity, ctrl+ = 100.
[4] abbreviates: replicate 2, read-out: CXCR1 activity, ctrl+ = 100.
[5] abbreviates: replicate 1, read-out: CCR9 activity, ctrl+ = 100.
Setting [6] is: replicate 2, read-out: CCR9 activity, ctrl+ = 100.
[7] abbreviates: replicate 1, read-out: CCR1 activity, ctrl+ = 100.
Where [8] appears, read: replicate 2, read-out: CCR1 activity, ctrl+ = 100.

Sequence of CCR8 (P51685 whole entry): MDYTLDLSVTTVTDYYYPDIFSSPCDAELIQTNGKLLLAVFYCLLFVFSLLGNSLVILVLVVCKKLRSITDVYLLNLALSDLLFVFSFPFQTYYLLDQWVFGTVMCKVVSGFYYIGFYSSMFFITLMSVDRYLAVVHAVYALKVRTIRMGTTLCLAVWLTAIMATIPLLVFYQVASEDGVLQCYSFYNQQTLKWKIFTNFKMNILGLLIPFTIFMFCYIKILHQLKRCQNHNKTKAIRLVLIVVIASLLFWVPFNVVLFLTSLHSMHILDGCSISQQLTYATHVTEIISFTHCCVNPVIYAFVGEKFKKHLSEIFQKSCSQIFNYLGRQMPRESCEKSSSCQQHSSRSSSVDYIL

With `NC(=O)[C@H](Cc1ccccc1)NC(=O)[C@H](Cc1c[nH]c2ccccc12)NC(=O)[C@@H]1CCCN1C(=O)[C@@H](N)Cc1ccc(O)cc1` [Endomorphin-1], the activation was 0.653% on CCR6 (setting [1]); 2.69% at CCR6 (setting [2]); 5.29% at ACKR3 (replicate 1); 17% on ACKR3 (replicate 2); 0.195% at CXCR1 (setting [3]); -0.597% at CXCR1 (setting [4]). Moreover, the activation at CCR9 (setting [5]) was -1.12%; on CCR9 (setting [6]), 1.74%; on CCR8 (replicate 1), -25.5%; on CCR8 (replicate 2) it was 19.4%; at CCR1 (setting [7]), 3.57%; at CCR1 (setting [8]), -19.2%.

As for `CC[C@H](C)[C@H](NC(=O)[C@H](CCCNC(=N)N)NC(=O)[C@H](CCCNC(=N)N)NC(=O)[C@H](CC(C)C)NC(=O)[C@H](Cc1ccccc1)NC(=O)CNC(=O)CN)C(=O)N[C@@H](CCCNC(=N)N)C(=O)N1CCC[C@H]1C(=O)N[C@@H](CCCCN)C(=O)N[C@@H](CC(C)C)C(=O)N[C@@H](CCCCN)C(=O)N[C@@H](Cc1c[nH]c2ccccc12)C(=O)N[C@@H](CC(=O)O)C(=O)N[C@@H](CC(N)=O)C(=O)N[C@@H](CCC(N)=O)C(=O)O` [Dynorphin 2-17], the activation was -0.438% on CCR6 (setting [1]); -1.06% on CCR6 (setting [2]); 72.7% at ACKR3 (replicate 1); 26.1% on ACKR3 (replicate 2); 0.572% on CXCR1 (setting [3]); 0.136% on CXCR1 (setting [4]). In addition, the activation at CCR9 (setting [5]) is 1.95%; at CCR9 (setting [6]), 0.179%; on CCR8 (replicate 1) it was -6.57%; on CCR8 (replicate 2), 0.623%; at CCR1 (setting [7]), -21%; on CCR1 (setting [8]) it was -15.3%.

For the compound `CC(C)C[C@H](NC(=O)[C@H](CCCCN)NC(=O)[C@H](CCCN=C(N)N)NC(=O)[C@H](C)NC(=O)[C@H](CO)NC(=O)[C@H](CCCCN)NC(=O)[C@H](CCCN=C(N)N)NC(=O)[C@H](C)NC(=O)CNC(=O)[C@@H](NC(=O)[C@H](Cc1ccccc1)NC(=O)CNC(=O)CNC(=O)[C@@H](N)Cc1ccccc1)[C@@H](C)O)C(=O)N[C@@H](C)C(=O)N[C@@H](CC(N)=O)C(=O)N[C@@H](CCC(N)=O)C(=O)O` [Nociceptin], the activation at CCR6 (setting [1]) is -0.76%; on CCR6 (setting [2]), 0.601%; at ACKR3 (replicate 2) it was 1.08%; on CXCR1 (setting [3]), -0.193%; at CXCR1 (setting [4]) it was 0.511%; at CCR9 (setting [5]), 0.361%. Besides, the activation at CCR9 (setting [6]) was 3.44%; at CCR8 (replicate 1), 27.1%; at CCR8 (replicate 2) it was -5.76%; at CCR1 (setting [7]), -16.6%; on CCR1 (setting [8]), -34.2%.

Regarding `CC[C@H](C)[C@H](NC(=O)[C@H](CCCNC(=N)N)NC(=O)[C@H](CCCNC(=N)N)NC(=O)[C@H](CC(C)C)NC(=O)[C@H](Cc1ccccc1)NC(=O)CNC(=O)CNC(=O)[C@@H](N)Cc1ccc(O)cc1)C(=O)N[C@@H](CCCNC(=N)N)C(=O)N1CCC[C@H]1C(=O)N[C@@H](CCCCN)C(=O)N[C@@H](CC(C)C)C(=O)N[C@@H](CCCCN)C(=O)O` [Dynorphin 1-13], the activation on CCR6 (setting [1]) is -0.31%; at CCR6 (setting [2]) it was -0.732%; at ACKR3 (replicate 1) it was 136%; on ACKR3 (replicate 2), 52.9%; on CXCR1 (setting [3]), 0.218%; on CXCR1 (setting [4]) it was -1.21%. The activation at CCR9 (setting [5]) was -2.31%; on CCR9 (setting [6]), -1.58%; on CCR8 (replicate 2), -19.6%; on CCR1 (setting [7]), -29%; at CCR1 (setting [8]), -26.2%.

(Values after publication PMC7305236, “The atypical chemokine receptor ACKR3/CXCR7 is a broad-spectrum scavenger for opioid peptides” (Nature Communications, 2020).)
